The text below walks through data of patent US10426169B2 (priority 2011, dated 2019).

For one data set, the system named is Phytophthora infestans.
Experiment: not given
Format: in vivo, Phytophthora infestans on young tomato plants. The note with it: protective, tomato plants, active ingredient concentration 100 ppm, evaluation 7 days after inoculation; 0% = control, 100% = no infection.
`CC(C)=NOCC(=O)N1CCC(c2nc(-c3cc(-c4ccccc4C=O)on3)cs2)CC1` [I-8, 2-{3-[2-(1-{[(Propan-2-ylideneamino)oxy]acetyl}piperidin-4-yl)-1,3-thiazol-4-yl]-1,2-oxazol-5-yl}benzaldehyde]: the Eff. % was determined as 89%.

Test system in another data set: not listed separately
Briefly: physchem. Particulars: pH 2.7.
From the text: The LC-MS determination in the acidic range is effected at pH 2.7 with 0.1% aqueous formic acid and acetonitrile (contains 0.1% formic acid) as eluents; linear gradient from 10% acetonitrile to 95% acetonitrile. • ^[b] The LC-MS determination in the neutral range is effected at pH 7.8 using 0.001 molar aqueous ammonium hydrogencarbonate solution and acetonitrile as eluents; linear gradient from 10% acetonitrile to 95% acetonitrile.
The calibration is effected with unbranched alkan-2-ones (having 3 to 16 carbon atoms) with known log P values (log P values determined on the basis of the retention times by linear interpolation between two successive alkanones).
For orientation: chromatographic logP means lipophilicity estimated from chromatographic retention. Low values mean a more hydrophilic compound, high ones a more lipophilic compound. The molecule `COC(C)(OC)C(CC(O)c1ccccc1OCC#C[Si](C)(C)C)=NO` (stereo not drawn) [1-hydroxyl-4,4-dimethoxy-1-(2-{[3-(trimethylsilyl)prop-2-yn-1-yl]oxy}phenyl)pentan-3-one oxime] yielded a chromatographic logP of 3.19. Turning to `CC(C)=NOCC(=O)N1CCC(c2nc(-c3cc(-c4ccccc4C=O)on3)cs2)CC1` [I-8, 2-{3-[2-(1-{[(Propan-2-ylideneamino)oxy]acetyl}piperidin-4-yl)-1,3-thiazol-4-yl]-1,2-oxazol-5-yl}benzaldehyde], the chromatographic logP came out at 2.45.

For `CC(C)=NOCC(=O)N1CCC(c2nc(C3=NOC(c4ccccc4OS(C)(=O)=O)C3)cs2)CC1` (stereo not drawn) [I-12, 2-{3-[2-(1-{[(Propan-2-ylideneamino)oxy]acetyl}piperidin-4-yl)-1,3-thiazol-4-yl]-4,5-dihydro-1,2-oxazol-5-yl}phenyl methanesulphonate], the chromatographic logP amounted to 2.36. The same measure, in the same setting: then `C#CCOc1ccccc1C1CC(C(C)=O)=NO1` (stereo not drawn) [VIIIa-a-81, 1-[5-(2-{[prop-2-yn-1-yl]oxy}phenyl)-4,5-dihydro-1,2-oxazol-3-yl]ethanone], with 4.41; and `CS(=O)(=O)Oc1cc(C(F)(F)F)ccc1C1CC(C(=O)CCl)=NO1` (stereo not drawn) [VIIa-a-143, 2-[3-(Chloroacetyl)-4,5-dihydro-1,2-oxazol-5-yl]-5-(trifluoromethyl)phenyl methanesulphonate], with 3.25. For `CN(C)CC(=O)N1CCC(c2nc(C3=NOC(c4ccccc4OS(C)(=O)=O)C3)cs2)CC1` (stereo not drawn) [X-1, 2-(3-{2-[1-(N,N-Dimethylglycyl)piperidin-4-yl]-1,3-thiazol-4-yl}-4,5-dihydro-1,2-oxazol-5-yl)phenyl methanesulphonate], the chromatographic logP was found to be 1.48.

Consider `CC(C)(C)[Si](C)(C)OCC(=O)N1CCC(c2nc(C3=NOC(c4ccccc4OS(C)(=O)=O)C3)cs2)CC1` (stereo not drawn) [X-2, 2-(3-{2-[1-({[tert-butyl(dimethyl)silyl]oxy}acetyl)piperidin-4-yl]-1,3-thiazol-4-yl}-4,5-dihydro-1,2-oxazol-5-yl)phenyl methanesulphonate], for which the chromatographic logP is 4.14. `CC(=O)OCC(=O)N1CCC(c2nc(C3=NOC(c4ccccc4OS(C)(=O)=O)C3)cs2)CC1` (stereo not drawn) [X-3, 2-{4-[4-(5-{2-[(Methylsulphonyl)oxy]phenyl}-4,5-dihydro-1,2-oxazol-3-yl)-1,3-thiazol-2-yl]piperidin-1-yl}-2-oxoethyl acetate] gave a chromatographic logP of 2.18.

The molecule `CC(C)(C)OC(=O)N1CCC(c2nc(C3=NOC(c4ccc(C(F)(F)F)cc4OS(C)(=O)=O)C3)cs2)CC1` (stereo not drawn) [XVI-143, tert-Butyl 4-[4-(5-{2-[(methylsulphonyl)oxy]-4-(trifluoromethyl)phenyl}-4,5-dihydro-1,2-oxazol-3-yl)-1,3-thiazol-2-yl]piperidine-1-carboxylate] had a chromatographic logP of 4.36. Turning to `CS(=O)(=O)Oc1ccccc1C1CC(c2csc(C3CCN(C(=O)CO)CC3)n2)=NO1` (stereo not drawn) [XXVIIa-142, 2-{3-[2-(1-glycoloylpiperidin-4-yl)-1,3-thiazol-4-yl]-4,5-dihydro-1,2-oxazol-5-yl}phenyl methanesulphonate], the chromatographic logP amounted to 1.88. In turn, `CS(=O)(=O)Oc1ccccc1C1CC(c2csc(C3CCN(C(=O)CCl)CC3)n2)=NO1` (stereo not drawn) [Xc-a-142, 2-(3-{2-[1-(Chloroacetyl)piperidin-4-yl]-1,3-thiazol-4-yl}-4,5-dihydro-1,2-oxazol-5-yl)phenyl methanesulphonate] had a chromatographic logP of 2.42.
